Laboratory results: US20230416225A1, “DIAMINOPYRIMIDINE CARBOXAMIDE INHIBITORS OF HPK1” (MERCK SHARP & DOHME LLC, priority 2020, published 2023)

Biological target: T1, Human HPK1, catalytic domain (Homo sapiens, UniProt Q92918)
T1 construct: purchased Carna
T1 sequence (Q92918 1-346): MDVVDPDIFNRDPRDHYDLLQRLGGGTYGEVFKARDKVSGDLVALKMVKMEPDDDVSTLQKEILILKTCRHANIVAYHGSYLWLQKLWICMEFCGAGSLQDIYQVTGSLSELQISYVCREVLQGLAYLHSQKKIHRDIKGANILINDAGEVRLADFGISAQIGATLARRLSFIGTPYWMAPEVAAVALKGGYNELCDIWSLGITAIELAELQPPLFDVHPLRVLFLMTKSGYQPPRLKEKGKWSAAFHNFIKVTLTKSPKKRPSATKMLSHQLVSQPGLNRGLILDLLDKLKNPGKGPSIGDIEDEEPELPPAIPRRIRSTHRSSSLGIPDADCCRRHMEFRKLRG
Experiment: HPK1-SLP76 TR-FRET assay
Assay type: biochemical
Conditions: 75 pM HPK1, 10 uM ATP, 10 nM SLP76, 30 min compound pre-incubation

| Structure (SMILES) | IC50 |
| --- | --- |
| COc1cc2c(cc1Nc1ncc(C(N)=O)c(Nc3cccc(C)c3)n1)CN(C)CC2 [Example 7-22, 2-[(6-methoxy-2-methyl-1,2,3,4-tetrahydroisoquinolin-7-yl)amino]-4-[(3-methylphenyl)amino]pyrimidine-5-carboxamide] | 0.81 nM |
| COc1cc2c(cc1Nc1ncc(C(N)=O)c(Nc3cccc(Cl)c3)n1)CN(C)CC2 [Example 7-25, 4-[(3-chlorophenyl)amino]-2-[(6-methoxy-2-methyl-1,2,3,4-tetrahydroisoquinolin-7-yl)amino]pyrimidine-5-carboxamide] | 1.04 nM |
| COc1cc2c(cc1Nc1ncc(C(N)=O)c(Nc3ccc(F)c(C#N)c3)n1)CN(C)CC2 [Example 7-26, 4-[(3-cyano-4-fluorophenyl)amino]-2-[(6-methoxy-2-methyl-1,2,3,4-tetrahydroisoquinolin-7-yl)amino]pyrimidine-5-carboxamide] | 15 nM |
| COc1cc2c(cc1Nc1ncc(C(N)=O)c(Nc3cccc(C#N)c3F)n1)CN(C)CC2 [Example 7-30, 4-[(3-cyano-2-fluorophenyl)amino]-2-[(6-methoxy-2-methyl-1,2,3,4-tetrahydroisoquinolin-7-yl)amino]pyrimidine-5-carboxamide] | 2.38 nM |
| COc1cc2c(cc1Nc1ncc(C(N)=O)c(Nc3cccc(CN(C)CC(=O)O)c3)n1)CN(C)CC2 [Example 7-34, N-{[3-({5-carbamoyl-2-[(6-methoxy-2-methyl-1,2,3,4-tetrahydroisoquinolin-7-yl)amino]pyrimidin-4-yl}amino)phenyl]methyl}-N-methylglycine] | 2.43 nM |
| COc1cc2c(cc1Nc1ncc(C(N)=O)c(Nc3cccc4c3CCN(C)C4=O)n1)CN(C)CC2 [Example 7-35, 2-[(6-methoxy-2-methyl-1,2,3,4-tetrahydroisoquinolin-7-yl)amino]-4-[(2-methyl-1-oxo-1,2,3,4-tetrahydroisoquinolin-5-yl)amino]pyrimidine-5-carboxamide] | 1.49 nM |
| CNC(=O)c1cccc(Nc2nc(Nc3cc4c(cc3OC)CCN(C)C4)ncc2C(N)=O)c1 [Example 7-38, 2-[(6-methoxy-2-methyl-1,2,3-tetrahydroisoquinolin-7-yl)amino]-4-{[3-(methylcarbamoyl)phenyl]amino} pyrimidine-5-carboxamide] | 7.77 nM |
| CNC(=O)c1cccc(Nc2nc(Nc3cc4c(cc3Cl)CCN(C)C4)ncc2C(N)=O)c1 [Example 7-39, 2-[(6-chloro-2-methyl-1,2,3,4-tetrahydroisoquinolin-7-yl)amino]-4-{[3-(methylcarbamoyl)phenyl]amino} pyrimidine-5-carboxamide] | 57.4 nM |
| CNC(=O)c1cccc(Nc2nc(Nc3cc4c(cc3F)CCN(C)C4)ncc2C(N)=O)c1 [Example 7-41, 2-[(6-fluoro-2-methyl-1,2,3,4-tetrahydroisoquinolin-7-yl)amino]-4-{[3-(methylcarbamoyl)phenyl]amino} pyrimidine-5-carboxamide] | 8.85 nM |
| NC(=O)c1cnc(Nc2cnn(CC3CC3)c2)nc1Nc1cccc2c1CCNC2=O [Example 7-43, 2-{[1-(cyclopropylmethyl)-1H-pyrazol-4-yl]amino}-4-[(1-oxo-1,2,3,4-tetrahydroisoquinolin-5-yl)amino]pyrimidine-5-carboxamide] | 4.25 nM |
| Cn1cc(Nc2ncc(C(N)=O)c(Nc3cccc4c3CCNC4=O)n2)cn1 [Example 7-44, 2-[(1-methyl-1H-pyrazol-4-yl)amino]-4-[(1-oxo-1,2,3,4-tetrahydroisoquinolin-5-yl)amino]pyrimidine-5-carboxamide] | 4.69 nM |
| NC(=O)c1cnc(Nc2cnn(CC(F)(F)F)c2)nc1Nc1cccc2c1CCNC2=O [Example 7-45, 4-[(1-oxo-1,2,3,4-tetrahydroisoquinolin-5-yl)amino]-2-{[1-(2,2,2-trifluoroethyl)-1H-pyrazol-4-yl]amino}pyrimidine-5-carboxamide] | 19.5 nM |
| COc1nn(C)cc1Nc1ncc(C(N)=O)c(Nc2cccc3c2CCNC3=O)n1 [Example 7-47, 2-[(3-methoxy-1-methyl-1H-pyrazol-4-yl)amino]-4-[(1-oxo-1,2,3,4-tetrahydroisoquinolin-5-yl)amino]pyrimidine-5-carboxamide] | 3.57 nM |
| CS(=O)(=O)c1ccc(Nc2ncc(C(N)=O)c(Nc3cccc4c3CCNC4=O)n2)cc1 [Example 7-48, 2-{[4-(methylsulfonyl)phenyl]amino}-4-[(1-oxo-1,2,3,4-tetrahydroisoquinolin-5-yl)amino]pyrimidine-5-carboxamide] | 1.29 nM |
| CC(C)n1cc(Nc2ncc(C(N)=O)c(Nc3cccc4c3CCNC4=O)n2)cn1 [Example 7-50, 4-[(1-oxo-1,2,3,4-tetrahydroisoquinolin-5-yl)amino]-2-{[1-(propan-2-yl)-1H-pyrazol-4-yl]amino}pyrimidine-5-carboxamide] | 6.24 nM |
| NC(=O)c1cnc(Nc2cnn(C3CCC3)c2)nc1Nc1cccc2c1CCNC2=O [Example 7-51, 2-[(1-cyclobutyl-1H-pyrazol-4-yl)amino]-4-[(1-oxo-1,2,3,4-tetrahydroisoquinolin-5-yl)amino]pyrimidine-5-carboxamide] | 4.21 nM |
| NC(=O)c1cnc(Nc2cnn(C3CCNCC3)c2)nc1Nc1cccc2c1CCNC2=O [Example 7-52, 4-[(1-oxo-1,2,3,4-tetrahydroisoquinolin-5-yl)amino]-2-{[1-(piperidin-4-yl)-1H-pyrazol-4-yl]amino}pyrimidine-5-carboxamide] | 0.55 nM |

The next compounds have a lower IC50 than those just listed; values first:

| IC50 | Structure (SMILES) |
| --- | --- |
| 0.51 nM | COc1cc2c(cc1Nc1ncc(C(N)=O)c(Nc3ccc(F)cc3)n1)CN(C)CC2 [Example 7-21, 4-[(4-fluorophenyl)amino]-2-[(6-methoxy-2-methyl-1,2,3,4-tetrahydroisoquinolin-7-yl)amino]pyrimidine-5-carboxamide] |
| 0.51 nM | COc1cc2c(cc1Nc1ncc(C(N)=O)c(Nc3cccc4c3CCN(CC(C)(C)O)C4)n1)CN(C)CC2 [Example 7-28, 4-{[2-(2-hydroxy-2-methylpropyl)-1,2,3,4-tetrahydroisoquinolin-5-yl]amino}-2-[(6-methoxy-2-methyl-1,2,3,4-tetrahydroisoquinolin-7-yl)amino]pyrimidine-5-carboxamide] |
| 0.41 nM | COc1cc2c(cc1Nc1ncc(C(N)=O)c(Nc3cccc(C4(C#N)CC4)c3)n1)CN(C)CC2 [Example 7-32, 4-{[3-(1-cyanocyclopropyl)phenyl]amino}-2-[(6-methoxy-2-methyl-1,2,3,4-tetrahydroisoquinolin-7-yl)amino]pyrimidine-5-carboxamide] |
| 0.4 nM | COc1cc2c(cc1Nc1ncc(C(N)=O)c(Nc3ccc(C)cc3)n1)CN(C)CC2 [Example 7-24, 2-[(6-methoxy-2-methyl-1,2,3,4-tetrahydroisoquinolin-7-yl)amino]-4-[(4-methylphenyl)amino]pyrimidine-5-carboxamide] |
| 0.37 nM | CN1CCc2cc(Cl)c(Nc3ncc(C(N)=O)c(Nc4cccc5c4CCNC5=O)n3)cc2C1 [Example 7-36, 2-[(6-chloro-2-methyl-1,2,3,4-tetrahydroisoquinolin-7-yl)amino]-4-[(1-oxo-1,2,3,4-tetrahydroisoquinolin-5-yl)amino]pyrimidine-5-carboxamide] |
| 0.35 nM | COc1cc2c(cc1Nc1ncc(C(N)=O)c(Nc3cccc4c3CCN(CC(F)(F)F)C4)n1)CN(C)CC2 [Example 7-29, 2-[(6-methoxy-2-methyl-1,2,3,4-tetrahydroisoquinolin-7-yl)amino]-4-{[2-(2,2,2-trifluoroethyl)-1,2,3,4-tetrahydroisoquinolin-5-yl]amino}pyrimidine-5-carboxamide] |
| 0.34 nM | COc1cc2c(cc1Nc1ncc(C(N)=O)c(Nc3ccccc3C#N)n1)CN(C)CC2 [Example 7-49, 4-[(2-cyanophenyl)amino]-2-[(6-methoxy-2-methyl-1,2,3,4-tetrahydroisoquinolin-7-yl)amino]pyrimidine-5-carboxamide] |
| 0.28 nM | CC(C1CC1)n1cc(Nc2ncc(C(N)=O)c(Nc3cccc4c3CCNC4=O)n2)cn1 (stereo not drawn) [Example 7-46, 2-{[1-(1-cyclopropylethyl)-1H-pyrazol-4-yl]amino}-4-[(1-oxo-1,2,3,4-tetrahydroisoquinolin-5-yl)amino]pyrimidine-5-carboxamide] |
| 0.21 nM | CN1CCc2cc(F)c(Nc3ncc(C(N)=O)c(Nc4cccc5c4CCNC5=O)n3)cc2C1 [Example 7-37, 2-[(6-fluoro-2-methyl-1,2,3,4-tetrahydroisoquinolin-7-yl)amino]-4-[(1-oxo-1,2,3,4-tetrahydroisoquinolin-5-yl)amino]pyrimidine-5-carboxamide] |
| 0.17 nM | CCC(C)c1ccccc1Nc1nc(Nc2cc3c(cc2OC)CCN(C)C3)ncc1C(N)=O (stereo not drawn) [Example 7-23, 4-{[2-(butan-2-yl)phenyl]amino}-2-[(6-methoxy-2-methyl-1,2,3,4-tetrahydroisoquinolin-7-yl)amino]pyrimidine-5-carboxamide] |
| 0.15 nM | COc1cc2c(cc1Nc1ncc(C(N)=O)c(Nc3cccc4c3CCN(S(C)(=O)=O)C4)n1)CN(C)CC2 [Example 7-31, 2-[(6-methoxy-2-methyl-1,2,3,4-tetrahydroisoquinolin-7-yl)amino]-4-{[2-(methylsulfonyl)-1,2,3,4-tetrahydroisoquinolin-5-yl]amino}pyrimidine-5-carboxamide] |
| 0.13 nM | COc1cc2c(cc1Nc1ncc(C(N)=O)c(Nc3cccc4c3CCNC4=O)n1)CN(C)CC2 [Example 7-27, 2-[(6-methoxy-2-methyl-1,2,3,4-tetrahydroisoquinolin-7-yl)amino]-4-[(1-oxo-1,2,3,4-tetrahydroisoquinolin-5-yl)amino]pyrimidine-5-carboxamide] |
| 0.12 nM | CN1CCc2cc(F)c(Nc3ncc(C(N)=O)c(Nc4ccccc4CO)n3)cc2C1 [Example 7-42, 2-[(6-fluoro-2-methyl-1,2,3,4-tetrahydroisoquinolin-7-yl)amino]-4-{[2-(hydroxymethyl)phenyl]amino}py-rimidine-5-carboxamide] |
